Reference: ChEMBL document CHEMBL2074061, “Inhibition of transport across the hepatocyte canalicular membrane by the antibiotic fusidate” (Biochem Pharmacol, 2002)

Key:
[1] = molecular target: T1, ATP-binding cassette sub-family C member 2 (Rattus norvegicus, UniProt Q63120); assay: TP_TRANSPORTER: inhibition of LTC4 uptake in canalicular membrane vesicles of rat liver; type: functional, cell membranes, Canalicular membrane vesicle
[2] = molecular target: T1, ATP-binding cassette sub-family C member 2; assay: TP_TRANSPORTER: inhibition of LTC4 uptake in Mrp2-expressing HEK cells; type: functional, cell-based, HEK293
[3] = molecular target: T1, ATP-binding cassette sub-family C member 2; assay: TP_TRANSPORTER: inhibition of E217betaG uptake in canalicular membrane vesicles of rat liver; type: functional, cell membranes, Canalicular membrane vesicle
Bile salt export pump = molecular target: T2, Bile salt export pump (Rattus norvegicus, UniProt O70127); assay: TP_TRANSPORTER: inhibition of Taurocholate uptake in canalicular membrane vesicles of rat liver; type: functional, cell membranes, Canalicular membrane vesicle
T2 sequence (O70127 whole entry): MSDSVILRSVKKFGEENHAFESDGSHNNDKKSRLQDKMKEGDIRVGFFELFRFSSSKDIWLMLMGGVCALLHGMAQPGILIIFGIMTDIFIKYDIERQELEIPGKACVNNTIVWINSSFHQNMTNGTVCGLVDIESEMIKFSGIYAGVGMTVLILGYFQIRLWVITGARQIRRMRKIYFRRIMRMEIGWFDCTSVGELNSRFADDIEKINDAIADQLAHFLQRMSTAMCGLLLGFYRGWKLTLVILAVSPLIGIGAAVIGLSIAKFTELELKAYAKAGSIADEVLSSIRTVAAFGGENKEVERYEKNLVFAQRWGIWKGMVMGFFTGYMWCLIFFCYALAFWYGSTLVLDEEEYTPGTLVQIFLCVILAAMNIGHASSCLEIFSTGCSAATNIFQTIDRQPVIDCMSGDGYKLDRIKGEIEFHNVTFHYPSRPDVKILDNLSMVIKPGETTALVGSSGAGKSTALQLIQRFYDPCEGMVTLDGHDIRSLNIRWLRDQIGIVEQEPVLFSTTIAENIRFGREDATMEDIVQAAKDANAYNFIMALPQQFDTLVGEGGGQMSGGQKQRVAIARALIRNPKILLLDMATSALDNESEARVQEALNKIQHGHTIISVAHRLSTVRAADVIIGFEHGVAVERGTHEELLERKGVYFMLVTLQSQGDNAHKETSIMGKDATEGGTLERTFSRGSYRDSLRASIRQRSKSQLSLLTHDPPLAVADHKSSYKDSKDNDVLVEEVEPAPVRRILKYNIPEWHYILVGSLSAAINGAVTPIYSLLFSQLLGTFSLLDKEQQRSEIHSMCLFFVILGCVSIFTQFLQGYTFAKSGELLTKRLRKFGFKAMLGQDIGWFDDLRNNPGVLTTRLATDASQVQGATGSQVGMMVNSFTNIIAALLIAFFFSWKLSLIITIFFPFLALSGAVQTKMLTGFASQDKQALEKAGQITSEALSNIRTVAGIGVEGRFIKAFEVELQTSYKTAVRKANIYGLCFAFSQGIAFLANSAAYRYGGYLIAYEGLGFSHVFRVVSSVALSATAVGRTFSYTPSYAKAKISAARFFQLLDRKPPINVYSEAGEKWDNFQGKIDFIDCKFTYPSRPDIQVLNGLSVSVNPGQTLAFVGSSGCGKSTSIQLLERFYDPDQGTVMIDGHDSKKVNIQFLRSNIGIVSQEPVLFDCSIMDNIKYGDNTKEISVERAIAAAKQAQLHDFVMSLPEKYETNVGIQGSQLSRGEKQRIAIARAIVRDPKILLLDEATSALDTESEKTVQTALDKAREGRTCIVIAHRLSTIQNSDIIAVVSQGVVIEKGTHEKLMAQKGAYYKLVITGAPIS

T1 sequence (Q63120 whole entry): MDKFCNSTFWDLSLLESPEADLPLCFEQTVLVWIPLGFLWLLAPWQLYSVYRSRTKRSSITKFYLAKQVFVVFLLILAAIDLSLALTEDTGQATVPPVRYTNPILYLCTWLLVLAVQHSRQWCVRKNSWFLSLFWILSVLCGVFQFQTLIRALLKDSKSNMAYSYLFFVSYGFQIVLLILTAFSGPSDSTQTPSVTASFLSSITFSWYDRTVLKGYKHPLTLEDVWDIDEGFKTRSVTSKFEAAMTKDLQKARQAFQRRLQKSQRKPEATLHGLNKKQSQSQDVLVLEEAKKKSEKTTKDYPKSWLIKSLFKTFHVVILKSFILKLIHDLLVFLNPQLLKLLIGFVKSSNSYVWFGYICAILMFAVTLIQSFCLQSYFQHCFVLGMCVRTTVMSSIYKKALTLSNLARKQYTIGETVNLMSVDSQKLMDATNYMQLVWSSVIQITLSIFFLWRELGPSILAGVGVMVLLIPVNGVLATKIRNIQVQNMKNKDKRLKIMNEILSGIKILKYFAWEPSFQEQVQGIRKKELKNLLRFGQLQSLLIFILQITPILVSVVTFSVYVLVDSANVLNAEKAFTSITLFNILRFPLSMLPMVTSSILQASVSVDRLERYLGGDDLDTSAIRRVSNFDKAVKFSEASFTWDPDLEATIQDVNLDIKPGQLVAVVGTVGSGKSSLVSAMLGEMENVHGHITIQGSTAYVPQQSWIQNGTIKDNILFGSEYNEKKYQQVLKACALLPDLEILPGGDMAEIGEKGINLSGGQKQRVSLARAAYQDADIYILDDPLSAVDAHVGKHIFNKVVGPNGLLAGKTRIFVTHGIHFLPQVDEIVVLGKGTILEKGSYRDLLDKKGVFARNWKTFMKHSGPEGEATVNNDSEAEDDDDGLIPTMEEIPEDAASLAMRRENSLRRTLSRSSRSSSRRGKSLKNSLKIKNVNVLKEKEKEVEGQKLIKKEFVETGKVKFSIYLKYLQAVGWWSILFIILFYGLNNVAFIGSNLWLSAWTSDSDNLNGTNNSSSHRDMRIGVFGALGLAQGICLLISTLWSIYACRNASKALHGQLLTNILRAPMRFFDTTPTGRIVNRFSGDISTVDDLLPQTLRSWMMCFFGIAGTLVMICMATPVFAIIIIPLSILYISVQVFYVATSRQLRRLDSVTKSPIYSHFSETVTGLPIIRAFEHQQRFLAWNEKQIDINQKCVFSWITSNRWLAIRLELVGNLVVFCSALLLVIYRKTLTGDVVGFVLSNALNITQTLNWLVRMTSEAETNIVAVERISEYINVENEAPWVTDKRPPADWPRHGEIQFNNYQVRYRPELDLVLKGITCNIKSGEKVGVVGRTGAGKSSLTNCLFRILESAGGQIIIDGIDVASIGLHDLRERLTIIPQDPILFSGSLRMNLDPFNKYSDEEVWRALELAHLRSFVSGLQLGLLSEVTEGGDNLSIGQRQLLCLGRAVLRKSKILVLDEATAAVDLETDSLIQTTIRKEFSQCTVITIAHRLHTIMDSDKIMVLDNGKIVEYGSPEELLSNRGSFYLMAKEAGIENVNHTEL

Ki [1]: 5.5 µM
Ki [2]: 13 µM
Ki [3]: 7.6 µM
Ki (Bile salt export pump): 2.2 µM
SMILES: CC(=O)O[C@H]1C[C@@]2(C)[C@@H](C[C@@H](O)[C@H]3[C@@]4(C)CC[C@@H](O)[C@@H](C)[C@@H]4CC[C@@]32C)/C1=C(\CCC=C(C)C)C(=O)O [FUSIDIC ACID]
